From patent US10143746B2, “Immunomodulators” (BRISTOL-MYERS SQUIBB COMPANY, priority 2016, dated 2018) come the findings set out here.

Molecules are shown by their SMILES. Where a SMILES comes first, the peptide text is derived from it. Bridges are numbered along the chain shown (N, C = ends). [ ]: non-standard residue; d: D form. Bta = N[C@@H](Cc1csc2ccccc12)C(=O)O; Hyp = O=C(O)[C@@H]1C[C@@H](O)CN1; NMeNle = CCCC[C@H](NC)C(=O)O; NMeA = CN[C@@H](C)C(=O)O; Orn = NCCC[C@H](N)C(=O)O; Dab = NCC[C@H](N)C(=O)O

As a reminder, the IC50 is the midpoint of a concentration-inhibition curve.

PD-1-Ig binding to PD-L1-TVMV-His (PD-L1-His), sequence (Q9NZQ7 other isoform, or with tags, fused parts or gaps): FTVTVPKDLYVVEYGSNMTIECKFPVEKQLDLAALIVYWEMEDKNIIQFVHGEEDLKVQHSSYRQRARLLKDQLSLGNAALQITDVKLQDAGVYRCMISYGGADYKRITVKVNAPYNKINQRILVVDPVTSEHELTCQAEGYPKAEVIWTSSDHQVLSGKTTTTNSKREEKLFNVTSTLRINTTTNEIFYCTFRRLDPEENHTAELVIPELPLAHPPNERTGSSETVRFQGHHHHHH

This assay has as its target PD-1-Ig binding to PD-L1-TVMV-His (PD-L1-His) (Homo sapiens (Human), UniProt Q9NZQ7). Kind of assay: PD-1/PD-L1 Homogenous Time-Resolved Fluorescence (HTRF) binding assay (PD-1-Ig/PD-L1-His). Conditions: PD-1-Ig (20 nM)/PD-L1-His (10 nM); range classes. The text has this:
Methods for Testing the Ability of Macrocyclic Compounds to Compete for the Binding of PD-1 to PD-L1 Using Homogenous Time-Resolved Fluorescence (HTRF) Binding Assays
The ability of the macrocyclic compounds of the present disclosure to bind to PD-L1 was investigated using a PD-1/PD-L1 Homogenous Time-Resolved Fluorescence (HTRF) binding assay.
Homogenous Time-Resolved Fluorescence (HTRF) Assays of Binding of Soluble PD-1 to Soluble PD-L1. Soluble PD-1 and soluble PD-L1 refers to proteins with carboxyl-end truncations that remove the transmembrane-spanning regions and are fused to heterologous sequences, specifically the Fc portion of the human immunoglobulin G sequence (Ig) or the hexahistidine epitope tag (His). All binding studies were performed in an HTRF assay buffer consisting of dPBS supplemented with 0.1% (w/v) bovine serum albumin and 0.05% (v/v) Tween-20. For the PD-1-Ig/PD-L1-His binding assay, inhibitors were pre-incubated with PD-L1-His (10 nM final) for 15 m in 4 μl of assay buffer, followed by addition of PD-1-Ig (20 nM final) in 1 μl of assay buffer and further incubation for 15 m. PD-L1 fusion proteins from either human, cynomologous macaques, mouse, or other species were used. HTRF detection was achieved using europium crypate-labeled anti-Ig monoclonal antibody (1 nM final) and allophycocyanin (APC) labeled anti-His monoclonal antibody (20 nM final). Antibodies were diluted in HTRF detection buffer and 5 μl was dispensed on top of binding reaction. […] Additional binding assays were established between PD-1-Ig/PD-L2-His (20 and 5 nM, respectively), CD80-His/PD-L1-Ig (100 and 10 nM, respectively) and CD80-His/CTLA4-Ig (10 and 5 nM, respectively).
Recombinant Proteins. […] Human PD-L2-His (Sino Biologicals), CD80-His (Sino Biologicals), CTLA4-Ig (RnD Systems) were all obtained through commercial sources.
For orientation: Time-resolved FRET reads energy transfer from a long-lived donor to a nearby acceptor.
The molecule `CCCC[C@H]1C(=O)N(C)[C@@H](CCCC)C(=O)N[C@@H](C)C(=O)N[C@H](C(=O)NCC(N)=O)CSCC(=O)N[C@@H](Cc2ccc(O)cc2)C(=O)N(C)[C@@H](C)C(=O)N[C@H]2CC(=O)NCC[C@H](NC(=O)[C@H](Cc3cnc[nH]3)NC(=O)[C@@H]3CCCN3C2=O)C(=O)N2C[C@H](O)C[C@H]2C(=O)N[C@@H](Cc2c[nH]c3ccccc23)C(=O)N[C@@H](CO)C(=O)N[C@@H](Cc2c[nH]c3ccccc23)C(=O)N1C` [Example 1500] ({CH2CO}-Y[NMeA]DPH[Dab][Hyp]WSW[NMeNle][NMeNle]ACG-NH2; lactam 3-6; thioether N-14) had an IC50 of 10 to 99 nM.

As for `CCCC[C@H]1C(=O)N(C)[C@@H](CCCC)C(=O)N[C@@H](CCCNC(=N)N)C(=O)N[C@H](C(=O)NCC(N)=O)CSCC(=O)N[C@@H](Cc2ccc(O)cc2)C(=O)N(C)[C@@H](C)C(=O)N[C@H]2CCNC(=O)CC[C@H](NC(=O)[C@H](C)NC(=O)[C@@H]3CCCN3C2=O)C(=O)N2C[C@H](O)C[C@H]2C(=O)N[C@@H](Cc2c[nH]c3ccccc23)C(=O)N[C@@H](CO)C(=O)N[C@@H](Cc2c[nH]c3ccccc23)C(=O)N1C` [Example 1400] ({CH2CO}-Y[NMeA][Dab]PAE[Hyp]WSW[NMeNle][NMeNle]RCG-NH2; lactam 3-6; thioether N-14), the IC50 was 10 to 99 nM.

Regarding `CCCC[C@H]1C(=O)N(C)[C@@H](CCCC)C(=O)N[C@@H](C)C(=O)N[C@H](C(=O)NCC(N)=O)CSCC(=O)N[C@@H](Cc2ccc(O)cc2)C(=O)N(C)[C@@H](C)C(=O)N[C@H]2CC(=O)NCCCC[C@H](NC(=O)[C@H](Cc3cnc[nH]3)NC(=O)[C@@H]3CCCN3C2=O)C(=O)N2C[C@H](O)C[C@H]2C(=O)N[C@@H](Cc2c[nH]c3ccccc23)C(=O)N[C@@H](CO)C(=O)N[C@@H](Cc2c[nH]c3ccccc23)C(=O)N1C` [Example 1507] ({CH2CO}-Y[NMeA]DPHK[Hyp]WSW[NMeNle][NMeNle]ACG-NH2; lactam 3-6; thioether N-14), the IC50 was in the range of 10 to 99 nM.

`CCCC[C@H]1C(=O)N(C)[C@@H](CCCC)C(=O)N[C@H]2CCC(=O)NCCCC[C@H](NC(=O)[C@H](Cc3c[nH]c4ccccc34)NC(=O)[C@@H]3C[C@@H](O)CN3C(=O)[C@H](CC(C)C)NC(=O)[C@H](Cc3c[nH]cn3)NC(=O)[C@@H]3CCCN3C(=O)[C@H](CC(N)=O)NC(=O)[C@@H](C)NC(=O)[C@H](Cc3ccc(O)cc3)NC(=O)CSC[C@@H](C(=O)NCC(N)=O)NC2=O)C(=O)N[C@@H](Cc2c[nH]c3ccccc23)C(=O)N1C` [Example 5008] ({CH2CO}-Y[dA]NPHL[Hyp]WKW[NMeNle][NMeNle]ECG-NH2; lactam 9-13; thioether N-14) displayed an IC50 of 3 to 9.9 nM.

As for `CCCC[C@H]1C(=O)N(C)[C@@H](CCCC)C(=O)N[C@@H](CCC(N)=O)C(=O)N[C@H](C(=O)NCC(N)=O)CSCC(=O)N[C@@H](Cc2ccc(O)cc2)C(=O)N[C@H](C)C(=O)N[C@H]2CC(=O)NCCCC[C@H](NC(=O)[C@H](Cc3c[nH]cn3)NC(=O)[C@@H]3CCCN3C2=O)C(=O)N2C[C@H](O)C[C@H]2C(=O)N[C@@H](Cc2c[nH]c3ccccc23)C(=O)N[C@@H](CO)C(=O)N[C@@H](Cc2c[nH]c3ccccc23)C(=O)N1C` [Example 5006] ({CH2CO}-Y[dA]DPHK[Hyp]WSW[NMeNle][NMeNle]QCG-NH2; lactam 3-6; thioether N-14), the IC50 was in the range of 10 to 99 nM.

On to `CCCC[C@H]1C(=O)N(C)[C@@H](CCCC)C(=O)N[C@@H](CC(C)C)C(=O)N[C@H](C(=O)NCC(N)=O)CSCC(=O)N[C@@H](Cc2ccc(O)cc2)C(=O)N(C)[C@@H](C)C(=O)N[C@H]2CCC(=O)NCCCC[C@H](NC(=O)[C@@H]3CCCN3C2=O)C(=O)N[C@@H](CC(C)C)C(=O)N2CCC[C@H]2C(=O)N[C@@H](Cc2c[nH]c3ccccc23)C(=O)N[C@@H](CO)C(=O)N[C@@H](Cc2c[nH]c3ccccc23)C(=O)N1C` [Example 10501], for which the IC50 was 100 to 1000 nM.

Turning to `CCCC[C@H]1C(=O)N(C)[C@@H](CCCC)C(=O)N[C@@H](CC(C)C)C(=O)N[C@H](C(=O)NCC(N)=O)CSCC(=O)N[C@@H](Cc2ccc(O)cc2)C(=O)N(C)[C@@H](C)C(=O)N[C@H]2CCC(=O)NCC[C@H](NC(=O)[C@@H]3CCCN3C2=O)C(=O)N[C@@H](CC(C)C)C(=O)N2CCC[C@H]2C(=O)N[C@@H](Cc2c[nH]c3ccccc23)C(=O)N[C@@H](CO)C(=O)N[C@@H](Cc2c[nH]c3ccccc23)C(=O)N1C` [Example 10503], the IC50 fell in the range of 100 to 1000 nM.

On to `CCCC[C@H]1C(=O)N(C)[C@@H](CCCC)C(=O)N[C@H]2CCC(=O)NCCCC[C@H](NC(=O)[C@H](Cc3c[nH]c4ccccc34)NC(=O)[C@@H]3CCCN3C(=O)[C@H](CC(C)C)NC(=O)[C@H](Cc3c[nH]cn3)NC(=O)[C@@H]3CCCN3C(=O)[C@H](CC(N)=O)NC(=O)[C@H](C)N(C)C(=O)[C@H](Cc3ccc(O)cc3)NC(=O)CSC[C@@H](C(=O)NCC(N)=O)NC2=O)C(=O)N[C@@H](Cc2csc3ccccc23)C(=O)N1C` [Example 5004] ({CH2CO}-Y[NMeA]NPHLPWK[Bta][NMeNle][NMeNle]ECG-NH2; lactam 9-13; thioether N-14), for which the IC50 lay within 3 to 9.9 nM.

`CCCC[C@H]1C(=O)N(C)[C@@H](CCCC)C(=O)N[C@@H](CCCNC(=N)N)C(=O)N[C@H](C(=O)NCC(N)=O)CSCC(=O)N[C@@H](Cc2ccc(O)cc2)C(=O)N(C)[C@@H](C)C(=O)N[C@H]2CCCNC(=O)CC[C@H](NC(=O)[C@H](C)NC(=O)[C@@H]3CCCN3C2=O)C(=O)N2C[C@H](O)C[C@H]2C(=O)N[C@@H](Cc2c[nH]c3ccccc23)C(=O)N[C@@H](CO)C(=O)N[C@@H](Cc2c[nH]c3ccccc23)C(=O)N1C` [Example 1402] ({CH2CO}-Y[NMeA][Orn]PAE[Hyp]WSW[NMeNle][NMeNle]RCG-NH2; lactam 3-6; thioether N-14) had an IC50 of 10 to 99 nM.

Molecule `CCCC[C@H]1C(=O)N(C)[C@@H](CCCC)C(=O)N[C@@H](C)C(=O)N[C@H](C(=O)NCC(N)=O)CSCC(=O)N[C@@H](Cc2ccc(O)cc2)C(=O)N(C)[C@@H](C)C(=O)N[C@H]2CC(=O)NCCC[C@H](NC(=O)[C@H](Cc3cnc[nH]3)NC(=O)[C@@H]3CCCN3C2=O)C(=O)N2C[C@H](O)C[C@H]2C(=O)N[C@@H](Cc2c[nH]c3ccccc23)C(=O)N[C@@H](CO)C(=O)N[C@@H](Cc2c[nH]c3ccccc23)C(=O)N1C` [Example 1508] ({CH2CO}-Y[NMeA]DPH[Orn][Hyp]WSW[NMeNle][NMeNle]ACG-NH2; lactam 3-6; thioether N-14) came in with an IC50 of 10 to 99 nM.

Take `CCCC[C@H]1C(=O)N(C)[C@@H](CCCC)C(=O)N[C@@H](C)C(=O)N[C@H]2CSCC(=O)N[C@@H](Cc3ccc(O)cc3)C(=O)N(C)[C@@H](C)C(=O)N[C@@H](CC(N)=O)C(=O)N3CCC[C@H]3C(=O)N[C@@H](Cc3cn(C(=O)C(F)(F)F)cn3)C(=O)N[C@@H](CC(C)C)C(=O)N[C@@H](CCCNC(=O)CNC2=O)C(=O)N[C@@H](Cc2c[nH]c3ccccc23)C(=O)N[C@@H](CO)C(=O)N[C@@H](Cc2c[nH]c3ccccc23)C(=O)N1C` [Example 1401]: the IC50 was in the range of 10 to 99 nM.
